Results as given in US7220563B2 (priority 2002, dated 2007).

Tested on: recombinant GAO
Format: biochemical

| Compound | effect on activation of the recombinant GAO | other results |
| --- | --- | --- |
| O=S(=O)([O-])[O-].[Cu+2] [CuSO4, copper sulfate] |  | concentration sufficient to activate recombinant GAO: 0.1 mM; effect on GAO activity: slightly inhibited; preferred concentration for activating crude enzyme solution: 0.4 mM |
| O=C(O)CN(CCN(CC(=O)O)CC(=O)O)CC(=O)O [EDTA] | did not affect activation |  |
| cobalt | did not affect activation |  |
| iron | did not affect activation |  |
| manganese | did not affect activation |  |
| nickel | did not affect activation |  |
